From ChEMBL document CHEMBL5331066, “Structure-guided design of novel HEPT analogs with enhanced potency and safety: From Isopropyl-HEPTs to Cyclopropyl-HEPTs” (Eur J Med Chem, 2023) come the findings set out here.

Data set [1] relates to Human immunodeficiency virus 1. Briefly: Antiviral activity against HIV1 harboring K103 N mutant infected in human MT4 cells assessed as protection against virus-induced cytopathicity. It counts as functional, organism-based. To be noted: Human immunodeficiency virus 1, MT4. (Cytopathic effects are the visible damage that an infection or toxin causes in cultured cells.)
For data set [2], the system named is Human immunodeficiency virus 1. Kind of data set: Antiviral activity against HIV1 harboring E138K mutant infected in human MT4 cells assessed as protection against virus-induced cytopathicity. It counts as functional, organism-based. To be noted: Human immunodeficiency virus 1, MT4.
In data set [3] the test system is Human immunodeficiency virus 1. Briefly: Antiviral activity against HIV1 harboring Y188L mutant infected in human MT4 cells assessed as protection against virus-induced cytopathicity. It counts as functional, organism-based. To be noted: Human immunodeficiency virus 1, MT4.
The nature of data set [4]: Selectivity index, ratio of CC50 for cytotoxicity against human MT4 cells to EC50 for antiviral activity against wild type HIV1 IIIB infected in human MT4 cells. It is filed as toxicity, cell-based. Particulars: read-out: Ratio CC50/EC50.
Data set [5] relates to Human immunodeficiency virus 1. Kind of data set: Antiviral activity against wild type HIV1 IIIB infected in human MT4 cells assessed as protection against virus-induced cytopathicity. It counts as functional, organism-based. To be noted: Human immunodeficiency virus 1, IIIB.
In data set [6] the test system is Human immunodeficiency virus 1. Kind of data set: Antiviral activity against HIV1 harboring L100I mutant infected in human MT4 cells assessed as protection against virus-induced cytopathicity. It is filed as functional, organism-based. To be noted: Human immunodeficiency virus 1, MT4.
A short description of data set [7]: Cytotoxicity against human MT4 cells assessed as reduction in cell viability. It is filed as toxicity, cell-based.
The target of data set [8] is Human immunodeficiency virus type 1 reverse transcriptase (Human immunodeficiency virus 1, UniProt Q72547). Kind of data set: Inhibition of wild type HIV-1 reverse transcriptase assessed as inhibition of biotin deoxyuridine triphosphate incorporation into […].
For data set [9], the system named is Human immunodeficiency virus 1. Briefly: Antiviral activity against HIV1 harboring Y181C mutant infected in human MT4 cells assessed as protection against virus-induced cytopathicity. It is filed as functional, organism-based. Particulars: Human immunodeficiency virus 1, MT4.
The next data set addresses Cytochrome P450 2C9 (Homo sapiens, UniProt P11712). Kind of data set: Inhibition of CYP2C9 (unknown origin). It is filed as ADME.
Data set [10] in a line: Cmax in Sprague-Dawley rat at 10 mg/kg,po. Details: dose 10 mg/kg, route po. It counts as ADME, organism-based. To be noted: in vivo.
The target in another data set is T1, Cytochrome P450 1A2 (Homo sapiens, UniProt P05177).
T1 sequence (P05177 whole entry): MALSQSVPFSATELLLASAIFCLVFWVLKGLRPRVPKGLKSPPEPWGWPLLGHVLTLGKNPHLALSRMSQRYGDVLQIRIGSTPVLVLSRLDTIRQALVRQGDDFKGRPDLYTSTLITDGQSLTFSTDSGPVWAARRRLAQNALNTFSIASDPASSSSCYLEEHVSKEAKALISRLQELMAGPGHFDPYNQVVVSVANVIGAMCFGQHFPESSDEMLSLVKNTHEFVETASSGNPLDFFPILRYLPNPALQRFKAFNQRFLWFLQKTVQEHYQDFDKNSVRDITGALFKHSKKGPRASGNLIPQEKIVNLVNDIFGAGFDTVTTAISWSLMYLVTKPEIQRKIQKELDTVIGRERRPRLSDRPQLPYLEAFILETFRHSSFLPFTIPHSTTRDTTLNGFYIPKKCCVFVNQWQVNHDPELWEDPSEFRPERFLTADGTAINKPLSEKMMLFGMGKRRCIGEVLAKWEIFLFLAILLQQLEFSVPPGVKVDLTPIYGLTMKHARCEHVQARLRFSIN
Kind of data set: Inhibition of CYP1A2 (unknown origin). It counts as ADME.

Data set [11] is described as follows: Acute toxicity in mouse assessed as behavioral abnormalities at 1000 mg/kg,IG administrated for 2 weeks. It counts as organism-based. To be noted: in vivo, po, 336 h.
Data set [12] in a line: AUC (0-t) in Sprague-Dawley rat at 10 mg/kg,po. It is filed as ADME, organism-based. Details: dose 10 mg/kg, route po. Particulars: in vivo.
Data set [13] can be described thus: Acute toxicity in mouse assessed as pathological changes in kidney at 1000 mg/kg,IG administrated for 2 weeks by hematoxylin-eosin staining based analysis. It is filed as organism-based. Particulars: in vivo, po, 336 h.
Data set [14] can be described thus: Tmax in Sprague-Dawley rat at 1 mg/kg,iv. It counts as ADME, organism-based. Particulars: in vivo.
Another data set concerns the target Cytochrome P450 2D6 (Homo sapiens, UniProt P10635). Briefly: Inhibition of CYP2D6 (unknown origin). It counts as ADME.
The nature of data set [15]: Acute toxicity in mouse assessed as pathological changes in lung at 1000 mg/kg,IG administrated for 2 weeks by hematoxylin-eosin staining based analysis. It counts as organism-based. Particulars: in vivo, po, 336 h.
The nature of data set [16]: Acute toxicity in mouse assessed as pathological changes in heart at 1000 mg/kg,IG administrated for 2 weeks by hematoxylin-eosin staining based analysis. It is filed as organism-based. Particulars: in vivo, po, 336 h.
Data set [17] can be described thus: Acute toxicity in mouse assessed as pathological changes in liver at 1000 mg/kg,IG administrated for 2 weeks by hematoxylin-eosin staining based analysis. Particulars: in vivo, po, 336 h. It counts as organism-based.
Data set [18] can be described thus: AUC (0-t) in Sprague-Dawley rat at 1 mg/kg,iv. It is filed as ADME, organism-based. Further details: dose 1 mg/kg, route iv. To be noted: in vivo.
The nature of data set [19]: AUC (0-infinity) in Sprague-Dawley rat at 10 mg/kg,po. It is filed as ADME, organism-based. Details: dose 10 mg/kg, route po. Particulars: in vivo.
Data set [20] can be described thus: Clearance in Sprague-Dawley rat at 1 mg/kg,iv. It is filed as ADME, organism-based. To be noted: in vivo.
Data set [21] is described as follows: Acute toxicity in mouse assessed as death at 1000 mg/kg,IG administrated for 2 weeks. It counts as organism-based. To be noted: in vivo, po, 336 h.
The target of data set [22] is T2, Cytochrome P450 3A4 (Homo sapiens, UniProt P08684). Briefly: Inhibition of CYP3A4M (unknown origin). It counts as ADME.
T2 sequence (P08684 whole entry): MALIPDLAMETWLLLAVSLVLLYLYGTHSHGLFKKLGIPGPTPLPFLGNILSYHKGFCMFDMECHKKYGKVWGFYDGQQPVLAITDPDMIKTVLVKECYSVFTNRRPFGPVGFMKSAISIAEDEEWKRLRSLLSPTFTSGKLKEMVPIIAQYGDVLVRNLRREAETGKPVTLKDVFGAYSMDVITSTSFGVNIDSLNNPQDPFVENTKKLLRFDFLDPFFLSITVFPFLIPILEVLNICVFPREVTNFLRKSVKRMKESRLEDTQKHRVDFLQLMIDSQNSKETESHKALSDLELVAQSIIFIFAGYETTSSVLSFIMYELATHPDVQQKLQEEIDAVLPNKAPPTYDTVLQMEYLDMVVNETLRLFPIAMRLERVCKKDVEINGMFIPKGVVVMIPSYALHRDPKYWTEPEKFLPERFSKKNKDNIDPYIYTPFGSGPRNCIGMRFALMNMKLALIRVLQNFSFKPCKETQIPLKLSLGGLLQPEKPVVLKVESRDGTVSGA
Data set [23] is described as follows: Apparent volume of distribution in Sprague-Dawley rat at 1 mg/kg,iv. It counts as ADME, organism-based. Particulars: in vivo, read-out: Vz.
A short description of data set [24]: Oral bioavailability in Sprague-Dawley rat at 10 mg/kg. Particulars: in vivo. It is filed as ADME, organism-based.
Data set [25] is described as follows: AUC (0-infinity) in Sprague-Dawley rat at 1 mg/kg,iv. Particulars: in vivo. Details: dose 1 mg/kg, route iv. It counts as ADME, organism-based.
Data set [26] is described as follows: Tmax in Sprague-Dawley rat at 10 mg/kg,po. It is filed as ADME, organism-based. To be noted: in vivo.
The nature of data set [27]: Half life in Sprague-Dawley rat at 10 mg/kg,po. It counts as ADME, organism-based. To be noted: in vivo.
The nature of data set [28]: Acute toxicity in mouse assessed as pathological changes in brain at 1000 mg/kg,IG administrated for 2 weeks by hematoxylin-eosin staining based analysis. It counts as organism-based. Particulars: in vivo, po, 336 h.
Data set [29] is described as follows: Acute toxicity in mouse assessed as pathological changes in spleen at 1000 mg/kg,IG administrated for 2 weeks by hematoxylin-eosin staining based analysis. It counts as organism-based. To be noted: in vivo, po, 336 h.
A further data set addresses Cytochrome P450 2C19 (Homo sapiens, UniProt P33261). Kind of data set: Inhibition of CYP2C19 (unknown origin). It counts as ADME.
Data set [30] is described as follows: Cmax in Sprague-Dawley rat at 1 mg/kg,iv. It is filed as ADME, organism-based. Particulars: in vivo. Further details: dose 1 mg/kg, route iv.
Data set [31] has as its target Voltage-gated inwardly rectifying potassium channel KCNH2 (Homo sapiens, UniProt Q12809). Kind of data set: Inhibition of human ERG potassium channel expressed in CHO cells by manual patch clamp method. It is filed as toxicity, cell-based. A general note: Patch clamp records ionic current or voltage across a cell membrane.
For data set [32], the target named is T2, Cytochrome P450 3A4. Briefly: Inhibition of CYP3A4T (unknown origin). It is filed as ADME.
Data set [33] can be described thus: Half life in Sprague-Dawley rat at 1 mg/kg,iv. To be noted: in vivo. It counts as ADME, organism-based.
The nature of data set [34]: Acute toxicity in mouse assessed as increase in body weight at 1000 mg/kg,IG administrated for 2 weeks. Particulars: in vivo, po, 336 h. It is filed as organism-based.

A value given as a limit tells only on which side of the number the result lay.

Sequence of Cytochrome P450 2D6 (P10635 whole entry): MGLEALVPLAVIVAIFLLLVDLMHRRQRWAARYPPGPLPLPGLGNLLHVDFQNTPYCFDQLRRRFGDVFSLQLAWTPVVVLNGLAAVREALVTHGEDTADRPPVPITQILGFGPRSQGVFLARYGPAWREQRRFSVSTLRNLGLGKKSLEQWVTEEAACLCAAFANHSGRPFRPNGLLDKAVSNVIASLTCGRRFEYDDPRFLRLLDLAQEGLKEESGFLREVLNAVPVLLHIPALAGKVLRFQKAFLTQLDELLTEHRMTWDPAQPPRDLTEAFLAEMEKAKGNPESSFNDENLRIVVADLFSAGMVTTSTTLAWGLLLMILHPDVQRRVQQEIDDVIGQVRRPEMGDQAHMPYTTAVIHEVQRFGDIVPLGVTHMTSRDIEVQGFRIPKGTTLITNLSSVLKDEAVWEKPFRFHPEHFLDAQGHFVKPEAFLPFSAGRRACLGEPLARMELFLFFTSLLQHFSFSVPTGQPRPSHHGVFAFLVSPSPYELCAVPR
Sequence of Cytochrome P450 2C9 (P11712 whole entry): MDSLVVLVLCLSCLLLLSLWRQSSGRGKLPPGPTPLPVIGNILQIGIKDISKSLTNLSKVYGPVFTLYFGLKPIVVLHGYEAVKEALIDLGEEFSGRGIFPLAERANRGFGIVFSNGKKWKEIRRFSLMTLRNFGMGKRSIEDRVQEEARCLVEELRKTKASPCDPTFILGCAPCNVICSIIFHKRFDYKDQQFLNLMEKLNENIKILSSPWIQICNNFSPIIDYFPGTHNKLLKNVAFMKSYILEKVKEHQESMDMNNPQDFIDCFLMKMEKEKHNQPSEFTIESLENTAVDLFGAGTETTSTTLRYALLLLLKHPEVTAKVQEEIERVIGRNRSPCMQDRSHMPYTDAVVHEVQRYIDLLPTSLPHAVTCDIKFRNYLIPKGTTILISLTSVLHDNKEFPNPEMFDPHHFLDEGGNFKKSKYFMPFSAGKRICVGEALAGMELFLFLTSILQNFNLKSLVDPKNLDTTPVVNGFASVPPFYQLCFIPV
Sequence of Cytochrome P450 2C19 (P33261 whole entry): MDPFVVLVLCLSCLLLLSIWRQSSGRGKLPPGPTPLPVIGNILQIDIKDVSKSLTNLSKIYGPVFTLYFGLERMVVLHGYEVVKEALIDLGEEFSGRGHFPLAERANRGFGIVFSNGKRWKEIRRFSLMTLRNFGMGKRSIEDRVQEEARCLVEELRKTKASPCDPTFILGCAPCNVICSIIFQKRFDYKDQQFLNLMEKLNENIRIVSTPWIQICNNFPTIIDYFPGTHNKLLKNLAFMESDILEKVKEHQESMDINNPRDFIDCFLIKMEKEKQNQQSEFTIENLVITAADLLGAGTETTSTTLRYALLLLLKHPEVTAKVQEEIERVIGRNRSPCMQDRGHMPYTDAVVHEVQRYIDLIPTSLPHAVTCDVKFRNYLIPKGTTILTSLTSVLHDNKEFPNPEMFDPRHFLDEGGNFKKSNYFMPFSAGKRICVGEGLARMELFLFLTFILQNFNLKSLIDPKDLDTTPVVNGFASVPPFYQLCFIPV
Sequence of Voltage-gated inwardly rectifying potassium channel KCNH2 (Q12809 whole entry): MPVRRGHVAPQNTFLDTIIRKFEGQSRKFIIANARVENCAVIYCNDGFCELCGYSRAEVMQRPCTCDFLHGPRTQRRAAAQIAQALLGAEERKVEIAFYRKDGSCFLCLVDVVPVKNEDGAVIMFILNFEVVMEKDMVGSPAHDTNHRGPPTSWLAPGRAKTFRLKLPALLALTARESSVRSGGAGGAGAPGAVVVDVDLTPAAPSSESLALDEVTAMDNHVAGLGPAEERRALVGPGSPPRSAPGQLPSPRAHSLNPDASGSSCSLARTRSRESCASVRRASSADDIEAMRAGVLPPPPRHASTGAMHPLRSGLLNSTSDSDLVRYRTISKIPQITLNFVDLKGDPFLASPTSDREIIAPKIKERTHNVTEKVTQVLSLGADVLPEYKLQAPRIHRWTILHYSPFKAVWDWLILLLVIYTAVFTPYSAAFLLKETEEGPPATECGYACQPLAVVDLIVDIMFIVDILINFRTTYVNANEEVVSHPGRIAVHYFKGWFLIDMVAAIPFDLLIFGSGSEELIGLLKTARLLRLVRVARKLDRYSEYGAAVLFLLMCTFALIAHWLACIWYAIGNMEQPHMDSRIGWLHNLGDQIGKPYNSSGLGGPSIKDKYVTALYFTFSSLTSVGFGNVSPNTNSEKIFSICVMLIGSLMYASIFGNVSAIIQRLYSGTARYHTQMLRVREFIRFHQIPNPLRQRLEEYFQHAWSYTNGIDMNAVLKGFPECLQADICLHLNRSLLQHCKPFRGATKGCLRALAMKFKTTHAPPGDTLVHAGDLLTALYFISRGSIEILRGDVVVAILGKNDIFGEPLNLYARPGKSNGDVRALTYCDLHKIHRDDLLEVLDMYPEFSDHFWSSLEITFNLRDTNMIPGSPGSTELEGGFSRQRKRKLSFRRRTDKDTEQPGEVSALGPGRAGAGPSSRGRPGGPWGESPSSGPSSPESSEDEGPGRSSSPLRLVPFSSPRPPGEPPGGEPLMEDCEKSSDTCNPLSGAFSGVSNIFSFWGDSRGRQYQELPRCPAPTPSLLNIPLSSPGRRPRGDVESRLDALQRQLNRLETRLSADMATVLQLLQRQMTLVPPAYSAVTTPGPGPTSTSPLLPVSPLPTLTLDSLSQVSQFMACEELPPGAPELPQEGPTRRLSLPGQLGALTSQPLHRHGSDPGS

`COc1cccc(Sc2c(C3CC3)c(=O)[nH]c(=O)n2COCc2ccccc2)c1`: the EC50 is 9.31 µM in data set [1]; 0.49 µM in data set [2]; > 33.1 µM in [3]; 0.085 µM in [5]; 0.27 µM in data set [6]; 5.1 µM in data set [9]. For the same compound, the selectivity ratio in data set [4] amounted to 383. In addition, in data set [7], the CC50 came to 33.1 µM. The IC50 in data set [8] came out at 0.18 µM.

With `O=c1[nH]c(=O)n(COCc2ccccc2)c(Sc2ccncc2)c1C1CC1`, the EC50 is 24 µM in data set [1]; 0.76 µM in data set [2]; > 167 µM in data set [3]; 22.2 µM in data set [5]; 1.44 µM in data set [6]; 17.8 µM in [9]. Also, the selectivity ratio in [4] was 8. Further, the CC50 in data set [7] amounted to 177 µM. Moreover, the IC50 in data set [8] is 0.63 µM.

Regarding `O=c1[nH]c(=O)n(COCc2ccccc2)c(Sc2ccccn2)c1C1CC1`, the EC50 in [1] was 6.12 µM; in [2] it was 0.25 µM; in data set [3] it was > 49.9 µM; in data set [5], 0.17 µM; in data set [6] it was 0.39 µM; in [9] it was 3.99 µM. In addition, the selectivity ratio in data set [4] worked out at 1000. Moreover, in [7], the CC50 stood at 167 µM. Moreover, the concentration for half-maximal inhibition (IC50) in [8] amounted to 0.11 µM.

With `O=c1[nH]c(=O)n(COCc2ccccc2)c(Sc2cc(F)ccc2F)c1C1CC1`, the EC50 in data set [1] was 2.64 µM; in data set [2] it was 0.09 µM; in data set [3], > 39.2 µM; in data set [5], 0.017 µM; in data set [6] it was 0.38 µM; in [9] it was 1.85 µM. For the same compound, the IC50 is 27.6 µM against Cytochrome P450 2C9; > 50 µM at Cytochrome P450 1A2; > 50 µM at Cytochrome P450 2D6; > 50 µM against Cytochrome P450 3A4 [22]; 30.3 µM against Cytochrome P450 2C19; 0.03 µM in data set [8]. The IC50 in data set [31] was > 40 µM; at Cytochrome P450 3A4 [32] it was > 50 µM. Moreover, the Cmax in [10] was 3.52 µg/mL; in data set [30] it was 2.03 µg/mL. In addition, the Activity entry in [11], in data set [13], in data set [15], in data set [16], in data set [17] and in [21] was “Non-Toxic” throughout. Moreover, the Activity entry in data set [28], in [29] and in data set [34] was “Non-Toxic” in each case. Further, the figures for the AUC(0-t) in data set [12] and in [18] were 8.66 µg·h/mL and 1.1 µg·h/mL, respectively. Moreover, the Tmax in data set [14] was determined as 4.98 min; in data set [26], 35 min. The AUC(0-inf) was determined as 9.56 µg·h/mL in data set [19] and 1.1 µg·h/mL in [25]. In [20], this compound gave a clearance of 0.936 L/h/kg. In addition, the selectivity ratio in data set [4] amounted to 2330. Moreover, the Vd in data set [23] was determined as 0.698 L/kg. This compound registered a bioavailability in data set [24] of 86.7%. Also, in [7], the CC50 came out at 39.2 µM. For the same compound, the half-life was 151 min in data set [27] and 30.8 min in data set [33].

On to `COc1ccc2c(c1)[C@]13CCCC[C@@H]1[C@H](C2)N(C)CC3` [DEXTROMETHORPHAN], for which the midpoint of inhibition on Cytochrome P450 2D6, the IC50, lay at 0.052 µM.

Usually EC50 stands for the concentration giving half of the maximal effect. A word on the CC50: it is the concentration at which the toxic effect on the cells reaches its halfway point. The term IC50 denotes the concentration needed to halve the response being measured. A word on the Cmax: it is the peak of the concentration-time curve. In general, AUC(0-t) refers to exposure summed from dosing to a finite time, without extrapolation to infinity. The term Tmax denotes the time at which the peak concentration occurs. As usually defined, the AUC(0-inf) is the area under the concentration-time curve extrapolated to infinity. High values mean more exposure, low ones less exposure. By clearance is commonly meant the rate of elimination divided by the concentration. Low values mean inefficient removal, high ones efficient removal. For orientation: bioavailability means the share of a dose that reaches the circulation, judged against a reference dose that is usually intravenous. Read a low bioavailability as little systemic uptake. The term half-life denotes the time in which the quantity being followed falls by half.
